Measurements published in patent publication US8367687B2, “Pyrazole derivatives” (Novartis AG, priority 2007, dated 2013).
Read-outs that look alike come from different tables or passages of the source.

Assays:
Format in all cases: biochemical
[1] = target: hCDK1/B (Homo sapiens, UniProt P06493); assay: hCDK1/B
[2] = target: CDK2 cyA (Homo sapiens, UniProt P24941); assay: CDK2 cyA IMAP
[3] = target: CDK4 (Homo sapiens, UniProt P11802); assay: CDK4 HTRF
[4] = Table 1, read-out: CDK2 cyA IMAP
[5] = Table 2, read-out: CDK2cyA IMAP/ IC50
[6] = Table 2, read-out: CDK4 HTRF/ IC50

CDK4, sequence (P11802 whole entry): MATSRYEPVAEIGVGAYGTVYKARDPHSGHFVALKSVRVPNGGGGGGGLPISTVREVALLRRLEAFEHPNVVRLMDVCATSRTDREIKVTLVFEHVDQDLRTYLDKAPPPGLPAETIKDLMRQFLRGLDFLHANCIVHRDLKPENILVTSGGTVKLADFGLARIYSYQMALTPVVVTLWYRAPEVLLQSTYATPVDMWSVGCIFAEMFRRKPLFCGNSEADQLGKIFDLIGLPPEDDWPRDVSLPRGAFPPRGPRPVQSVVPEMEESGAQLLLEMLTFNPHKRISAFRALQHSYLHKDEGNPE
CDK4, sequence (P24385 whole entry partner): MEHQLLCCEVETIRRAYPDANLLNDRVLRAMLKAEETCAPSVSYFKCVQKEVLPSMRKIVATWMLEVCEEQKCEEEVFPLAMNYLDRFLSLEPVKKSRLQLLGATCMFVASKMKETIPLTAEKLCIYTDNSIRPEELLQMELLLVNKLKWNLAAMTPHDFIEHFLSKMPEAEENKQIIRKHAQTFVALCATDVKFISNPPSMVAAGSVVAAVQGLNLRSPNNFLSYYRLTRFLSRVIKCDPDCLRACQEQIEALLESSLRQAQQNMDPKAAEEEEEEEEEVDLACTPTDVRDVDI
hCDK1/B, sequence (P06493 whole entry): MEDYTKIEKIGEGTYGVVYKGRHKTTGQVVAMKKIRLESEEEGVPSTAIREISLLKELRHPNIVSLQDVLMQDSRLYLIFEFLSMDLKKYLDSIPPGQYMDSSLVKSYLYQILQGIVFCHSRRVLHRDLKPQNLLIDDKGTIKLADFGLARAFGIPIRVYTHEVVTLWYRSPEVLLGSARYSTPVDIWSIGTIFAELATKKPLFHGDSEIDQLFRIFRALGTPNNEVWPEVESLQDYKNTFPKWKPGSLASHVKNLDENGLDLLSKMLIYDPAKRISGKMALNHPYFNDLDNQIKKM
hCDK1/B, sequence (P14635 whole entry partner): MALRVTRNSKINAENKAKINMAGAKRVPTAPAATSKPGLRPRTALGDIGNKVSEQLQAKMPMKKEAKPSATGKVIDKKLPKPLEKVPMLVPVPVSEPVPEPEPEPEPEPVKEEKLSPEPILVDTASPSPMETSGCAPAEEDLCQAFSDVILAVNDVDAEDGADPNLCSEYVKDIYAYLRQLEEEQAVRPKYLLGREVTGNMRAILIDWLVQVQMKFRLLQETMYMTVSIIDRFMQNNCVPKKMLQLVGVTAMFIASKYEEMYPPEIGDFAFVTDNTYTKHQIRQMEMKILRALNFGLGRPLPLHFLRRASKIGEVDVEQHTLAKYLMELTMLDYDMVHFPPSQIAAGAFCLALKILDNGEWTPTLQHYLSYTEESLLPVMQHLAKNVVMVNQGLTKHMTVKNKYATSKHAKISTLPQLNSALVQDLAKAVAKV

| IC50 ([1]; Table 1) | IC50 [2, 4] | IC50 ([3]; Table 1, read-out: CDK4 HTRF) | IC50 ([1]; Table 2) | IC50 [2, 5] | IC50 [3, 6] | SMILES |
| --- | --- | --- | --- | --- | --- | --- |
| < 5 µM | < 5 µM | < 5 µM |  |  |  | Cc1ccc(CNc2cc(-c3cn[nH]c3C(C)C)ccn2)cc1 [Example 28] |
|  |  |  | < 5 µM | < 5 µM | < 0.5 µM | CC(C)c1n[nH]cc1-c1ccnc(NC2CC(C)(C)c3ccccc32)n1 (stereo not drawn) [Example 191] |
| < 5 µM | < 5 µM | < 5 µM |  |  |  | Cc1cccc(CNc2cc(-c3cn[nH]c3C3CCCC3)ccn2)c1 [Example 62] |
| < 5 µM | < 5 µM | < 1 µM |  |  |  | CCC(C)c1[nH]ncc1-c1ccnc(NCc2ccccc2C)c1 (stereo not drawn) [Example 81] |
|  |  |  | < 1 µM | < 5 µM | < 0.5 µM | CC(CCCC(C)(C)O)Nc1nccc(-c2c[nH]nc2C(C)C)n1 (stereo not drawn) [Example 145] |
| < 0.5 µM | < 0.5 µM | < 0.5 µM |  |  |  | CC(C)CNc1cc(-c2cn[nH]c2C(C)C)ccn1 [Example 9] |
| < 5 µM | < 1 µM | < 0.5 µM |  |  |  | c1cc(-c2cn[nH]c2C2CCCC2)cc(NC2CCCCCC2)n1 [Example 55] |
| < 5 µM | < 5 µM | < 5 µM |  |  |  | CCC(C)c1[nH]ncc1-c1ccnc(NC2CCc3ccccc32)c1 (stereo not drawn) [Example 82] |
| < 5 µM | < 1 µM | < 0.5 µM |  |  |  | CCC(C)Nc1cc(-c2cn[nH]c2C(C)C)ccn1 (stereo not drawn) [Example 26] |
| < 5 µM | < 5 µM | < 0.5 µM |  |  |  | c1cncc(CCNc2cc(-c3cn[nH]c3C3CCCC3)ccn2)c1 [Example 59] |
|  |  |  | ≥ 15 µM | > 15 µM | < 0.5 µM | CC(C)c1n[nH]cc1-c1ccnc(NC2CCCc3cccnc32)n1 (stereo not drawn) [Example 186] |
|  |  |  | < 10 µM | < 10 µM | < 1 µM | Cc1n[nH]cc1-c1ccnc(NCCc2cccnc2)n1 [Example 132] |
|  |  |  | < 0.5 µM | < 0.5 µM | < 0.05 µM | CC(C)c1n[nH]cc1-c1ccnc(NC2CCN(c3ccccc3)CC2)n1 [Example 172] |
| < 5 µM | < 5 µM | < 1 µM |  |  |  | CC(C)c1[nH]ncc1-c1ccnc(NCc2ccco2)c1 [Example 24] |
|  |  |  | < 15 µM | < 10 µM | < 5 µM | CC(C)c1n[nH]cc1-c1ccnc(NCCCNC2CCCCC2)n1 [Example 148] |
| < 5 µM | < 5 µM | < 0.1 µM |  |  |  | Cc1ccccc1CNc1cc(-c2cn[nH]c2C(C)C)ccn1 [Example 14, [4-(5-Isopropyl-1H-pyrazol-4-yl)-pyridin-2-yl]-(2-methyl-benzyl)-amine] |
| < 10 µM | ≥ 15 µM | < 5 µM |  |  |  | CN1CCC(Nc2cc(-c3cn[nH]c3C3CCCC3)ccn2)CC1 [Example 79] |
| < 5 µM | < 5 µM | < 5 µM |  |  |  | CC(C)c1[nH]ncc1-c1ccnc(NCCCO)c1 [Example 23] |
|  |  |  | < 15 µM | ≥ 15 µM | < 0.5 µM | CC(C)c1n[nH]cc1-c1ccnc(NCCN2CCCCC2)n1 [Example 173] |
| ≥ 15 µM | ≥ 15 µM | < 5 µM |  |  |  | CC(C)c1[nH]ncc1-c1ccnc(NCCCCN2CCCC2)c1 [Example 33] |
| < 5 µM | < 5 µM | < 5 µM |  |  |  | CC(C)c1[nH]ncc1-c1ccnc(NCc2ccc(F)cc2)c1 [Example 30] |
| < 5 µM | < 5 µM | < 5 µM |  |  |  | COc1ccc(CNc2cc(-c3cn[nH]c3C(C)C)ccn2)cc1 [Example 34] |

| IC50 ([1]; Table 1) | IC50 [2, 4] | IC50 ([3]; Table 1, read-out: CDK4 HTRF) | IC50 ([1]; Table 2) | IC50 [2, 5] | IC50 [3, 6] | SMILES |
| --- | --- | --- | --- | --- | --- | --- |
| < 5 µM | < 5 µM | < 0.5 µM |  |  |  | Cc1ccccc1CNc1cc(-c2cn[nH]c2C2CCCC2)ccn1 [Example 60] |
| < 5 µM | < 5 µM | < 10 µM |  |  |  | FC(F)(F)c1ccccc1CNc1cc(-c2cn[nH]c2C2CCCC2)ccn1 [Example 63] |
| < 5 µM | < 5 µM | < 0.5 µM |  |  |  | CCC(CC)c1[nH]ncc1-c1ccnc(NCc2ccccc2C)c1 [Example 71] |
|  |  |  | < 10 µM | < 10 µM | < 0.5 µM | Cc1n[nH]cc1-c1ccnc(NC2CCc3ccccc32)n1 (stereo not drawn) [Example 112] |
|  |  |  | < 5 µM | ≥ 15 µM | < 15 µM | CC(C)c1n[nH]cc1-c1ccnc(NCc2ccccc2OC(F)(F)F)n1 [Example 158] |
|  |  |  | < 5 µM | < 5 µM | < 5 µM | CC(C)c1n[nH]cc1-c1ccnc(NCc2ccc(N(C)C)cc2)n1 [Example 147] |
| < 10 µM | < 15 µM | < 0.5 µM |  |  |  | CC(C)c1[nH]ncc1-c1ccnc(NC(CO)C(C)C)c1 (stereo not drawn) [Example 46] |
|  |  |  | < 10 µM | < 15 µM | < 0.5 µM | Cc1nnc(C(C)Nc2nccc(-c3c[nH]nc3C(C)C)n2)[nH]1 (stereo not drawn) [Example 162] |
|  |  |  | ≥ 15 µM | ≥ 15 µM | < 5 µM | Cc1[nH]nc(C(C)C)c1-c1ccnc(NC2CCN(C)CC2)n1 [Example 185] |
| < 10 µM | < 15 µM | < 0.5 µM |  |  |  | CC(C)c1[nH]ncc1-c1ccnc(NC2CCN(C)CC2)c1 [Example 78] |
| < 15 µM | ≥ 15 µM | < 0.5 µM |  |  |  | CN1CCC(Nc2cc(-c3cn[nH]c3C3CC3)ccn2)CC1 [Example 80] |
| < 5 µM | < 5 µM | < 0.1 µM |  |  |  | Cc1ccccc1CNc1cc(-c2cn[nH]c2C2CC2)ccn1 [Example 68] |
|  |  |  | < 1 µM | < 5 µM | < 1 µM | CC(C)c1n[nH]cc1-c1ccnc(NCc2c(F)cccc2F)n1 [Example 157] |
|  |  |  | < 5 µM | < 5 µM | < 1 µM | CC(C)c1n[nH]cc1-c1ccnc(N[C@H]2CCc3ccccc32)n1 [Example 175] |
| < 5 µM | < 1 µM | < 5 µM |  |  |  | c1ccc2c(c1)CC(Nc1cc(-c3cn[nH]c3C3CCCCCC3)ccn1)C2 [Example 67] |
| < 5 µM | < 5 µM | < 0.5 µM |  |  |  | CC(C)c1[nH]ncc1-c1ccnc(NCCc2cccnc2)c1 [Example 15] |
|  |  |  | < 5 µM | < 5 µM | < 0.1 µM | CC(C)c1n[nH]cc1-c1ccnc(N[C@H](C)c2ccccn2)n1 [Example 187] |
|  |  |  | < 10 µM | < 10 µM | < 0.5 µM | CC(C)c1n[nH]cc1-c1ccnc(NC(C)c2ccccn2)n1 (stereo not drawn) [Example 183] |
| < 10 µM | < 10 µM | < 5 µM |  |  |  | COCCNc1cc(-c2cn[nH]c2C(C)C)ccn1 [Example 5] |
| < 15 µM | ≥ 15 µM | < 0.5 µM |  |  |  | CC(C)c1[nH]ncc1-c1ccnc(NC2CCN(Cc3ccccc3)CC2)c1 [Example 45] |
| ≥ 15 µM | ≥ 15 µM | < 10 µM |  |  |  | CC(C)c1[nH]ncc1-c1ccnc(NCCCN2CCCC2)c1 [Example 19] |
|  |  |  | < 1 µM | < 5 µM | < 5 µM | CC(C)c1n[nH]cc1-c1ccnc(NCCCN(C)c2ccccc2)n1 [Example 142] |

| IC50 ([1]; Table 1) | IC50 [2, 4] | IC50 ([3]; Table 1, read-out: CDK4 HTRF) | IC50 ([1]; Table 2) | IC50 [2, 5] | IC50 [3, 6] | SMILES |
| --- | --- | --- | --- | --- | --- | --- |
|  |  |  | < 5 µM | < 5 µM | < 0.5 µM | Cc1n[nH]cc1-c1ccnc(NC2CCN(c3ccccc3)CC2)n1 [Example 136] |
| < 5 µM | < 5 µM | < 1 µM |  |  |  | CC(C)c1[nH]ncc1-c1ccnc(NCc2ccccc2)c1 [Example 4] |
|  |  |  | < 1 µM | < 1 µM | < 5 µM | CC(C)c1n[nH]cc1-c1ccnc(NCc2ccccc2Cl)n1 [Example 153] |
| < 5 µM | < 5 µM | < 0.5 µM |  |  |  | CCCCNc1cc(-c2cn[nH]c2C(C)C)ccn1 [Example 10] |
|  |  |  | < 5 µM | < 5 µM | < 5 µM | CC(C)c1n[nH]cc1-c1ccnc(NCc2ccccc2C(F)(F)F)n1 [Example 154] |
|  |  |  | < 5 µM | < 5 µM | < 1 µM | Cc1n[nH]cc1-c1ccnc(NC2CCCNC2)n1 (stereo not drawn) [Example 138] |
|  |  |  | < 5 µM | < 10 µM | < 5 µM | Cc1n[nH]cc1-c1ccnc(NCCCn2ccnc2)n1 [Example 106] |
|  |  |  | < 5 µM | < 5 µM | < 1 µM | Cc1n[nH]cc1-c1ccnc(NC2CCCCCC2)n1 [Example 87] |
| < 5 µM | < 5 µM | < 5 µM |  |  |  | Cc1cccc(CNc2cc(-c3cn[nH]c3C(C)C)ccn2)c1 [Example 49] |
| < 5 µM | < 5 µM | < 1 µM |  |  |  | CC(C)c1[nH]ncc1-c1ccnc(NC(C)c2ccccc2)c1 (stereo not drawn) [Example 27] |
| < 5 µM | < 5 µM | < 0.5 µM |  |  |  | CC(C)c1[nH]ncc1-c1ccnc(NCC2CC2)c1 [Example 8] |
|  |  |  | < 15 µM | < 15 µM | < 0.5 µM | Cc1n[nH]cc1-c1ccnc(NC2CCN(C)CC2)n1 [Example 90] |
| < 5 µM | < 10 µM | < 1 µM |  |  |  | CCC(CC)c1[nH]ncc1-c1ccnc(NC2CCN(C)CC2)c1 [Example 73] |
| < 5 µM | < 0.5 µM | < 0.5 µM |  |  |  | c1cc(-c2cn[nH]c2C2CCCC2)cc(NC2CCC2)n1 [Example 52] |
| < 5 µM | < 1 µM | < 0.5 µM |  |  |  | CC(C)c1[nH]ncc1-c1ccnc(NC2CC2)c1 [Example 39] |
| < 5 µM | < 1 µM | < 0.5 µM |  |  |  | CC(C)CNc1cc(-c2cn[nH]c2C2CCCC2)ccn1 [Example 56] |
| < 5 µM | < 5 µM | < 5 µM |  |  |  | CC(C)c1[nH]ncc1-c1ccnc(NCC2CCCCCC2)c1 [Example 20] |
|  |  |  | < 5 µM | < 5 µM | < 1 µM | CC(C)c1n[nH]cc1-c1nc(NC2CCN(C)CC2)ncc1Br [Example 180] |
|  |  |  | < 10 µM | ≥ 15 µM | < 0.5 µM | CC(CN(C)C)Nc1nccc(-c2c[nH]nc2C(C)C)n1 (stereo not drawn) [Example 143] |
| < 5 µM | < 1 µM | < 0.5 µM |  |  |  | c1cc(-c2cn[nH]c2C2CCCC2)cc(NC2CCCCC2)n1 [Example 54] |
